Experimental findings from EP4124338A1, “SIGMA-1 RECEPTOR ACTIVATOR FOR USE IN THE TREATMENT OF A PATHOLOGY ASSOCIATED WITH WFS1 MUTATION” (Université de Montpellier, priority 2021, dated 2023) are described below.

Structures can show the parent of a compound that is named as a salt.

Assay [1] deals with Wfs1^ΔExon8 mice. The assay is described as follows: Black-and-white exploration box test (anxiety). The following applies: female Wfs1^ΔExon8 mice, 0.3 mg/kg ip 30 min before. Format: in vivo. The text has this: (§1) Drugs and administration procedures: 2-(4-morpholinethyl)-1-phenylcyclohexanecarboxylate hydrochloride (PRE-084) was from Sigma-Aldrich (Saint-Quentin-Fallavier, France). […]
Black-and-white exploration box test: Anxiety level of WFS1 KO mice was first examined using the black-and-white exploration box. It consisted of two adjacent compartments (23 × 16 × 10 cm^3) separated by a small opening (6 × 6 cm^2). The light compartment is brightly lit from above and covered with a transparent lid, and the dark compartment is covered with a black lid. Mice were placed in the light box, and exploration measured during 10 min by IR videotracking (Viewpoint). The time spent in each compartment and number of crossings among compartments were recorded. The time in the light compartment per visit was calculated. […] Seven animals were discarded accordingly corresponding to 14% attrition.
(§2) Experimental series: For phenotyping, animals were tested in series in the different behavioral tests assessing activity, learning and memory or anxiety, finishing with the most stressful procedures: (1) open-field (1 day), (2) spontaneous alternation (1 day), (3) object recognition (2 days), (4) place learning in the water-maze water-maze (5+2 days), (5) passive avoidance (2 days), (6) elevated plus-maze (1 day), and (7) black-and-white box exploration (1 day), in that order and over 16 days. For PRE-084 treatment experiments, animals were tested in series on a limited number of tests: spontaneous alternation (1 day), object recognition (2 days) and passive avoidance (2 days) for males, elevated plus-maze (1 day) and black-and-white box (1 day) for females.

The test system of assay [2] is Wfs1^ΔExon8 mice. The assay is described as follows: Object recognition test (short-term recognition memory). Format: in vivo. The following applies: male Wfs1^ΔExon8 mice.
Description: as §1
Object recognition test: The test measures short-term recognition memory. The apparatus consisted in four squared open-fields (50 cm × 50 cm × 50 cm high) made in white Plexiglas and placed on a floor equipped with infrared (IR) light emitting diodes. The locomotor activity of the animal and position of their nose could be captured through an IR-sensitive camera and analyzed using the Videotrack® and Nosetrack® softwares (Viewpoint). Session 1: animals were allowed to acclimate during 10 min to the open-field. The mouse locomotion was analyzed by videotracking. […] Each mouse was placed in the open-field and the exploratory activity and nose position was recorded during 10 min. The activity was analyzed by videotracking in terms of number of contacts with the objects and duration of contacts. […] Each mouse was placed again in the open-field and the exploratory activity recorded during 10 min. The activity was analyzed similarly. The preferential exploration index was calculated as the ratio of the number of contacts with the object in position 2 over the total number of contacts with the two objects. […]

Assay [3] has as its system Wfs1^ΔExon8 mice. The experiment in a line: Step-through type passive avoidance test (non-spatial long-term memory). Format: in vivo. The following applies: male Wfs1^ΔExon8 mice, 0.3 mg/kg ip 30 min before training, retention.
Description: as §1
Step-through type passive avoidance test: The test measures non-spatial long-term memory. The apparatus is a two-compartments (15 × 20 × 15 cm high) box with one illuminated with white polyvinylchloride walls and the other darkened with black polyvinylchloride walls and a grid floor. A guillotine door separates each compartment. A 60 W lamp positioned 40 cm above the apparatus lights up the white compartment during the experiment. Scrambled foot shocks (0.3 mA for 3 s) could be delivered to the grid floor using a shock generator scrambler (Lafayette Instruments, Lafayette, USA). The guillotine door was initially closed during the training session. Each mouse was placed into the white compartment. After 5 s, the door was raised. […] The step-through latency, that is, the latency spent to enter the darkened compartment, and the shock sensitivity (estimated as 0 = no reaction, 1 = flinching reactions, 2 = flinchings and vocalizations) were recorded. […] The step-through latency and escape latency (corresponding to the time spent to exit the dark compartment) were recorded up to 300 s each. […]

Assay [4] concerns Wfs1^ΔExon8 mice. The experiment in a line: Spontaneous alternation in the Y-maze (spatial working memory). The following applies: male Wfs1^ΔExon8 mice; PRE-084 0.3 mg/kg ip (legend b25; b84 says 1 mg/Kg) 30 min before the Y-maze session; Fig. 2. Format: in vivo.
Description: as §1
Spontaneous alternation in the Y-maze: The test assesses spatial working memory. The maze was made of grey polyvinylchloride. Each arm was 40 cm long, 13 cm high, 3 cm wide at the bottom, 10 cm wide at the top, and converging at an equal angle. Each mouse was placed at the end of one arm and allowed to move freely through the maze during an 8 min session. The series of arm entries, including possible returns into the same arm, was recorded visually. An alternation was defined as entries into all three arms on consecutive occasions. The number of maximum alternations was therefore the total number of arm entries minus two and the percentage of alternation was calculated as (actual alternations/maximum alternations) × 100. […] Thirteen animals were discarded accordingly corresponding to 26% attrition. […]

The test system of the next assay is Wfs1ab^KO larvae. The experiment in a line: Visual Motor Response (VMR), locomotor activity of larvae during light OFF periods. The following applies: Fig. 9. In kind it is in vivo, zebrafish. The method, then: Zebrafish Generation: All experiments were performed in accordance with the 2010/63/EU Directive and the ARRIVE guidelines. Zebrafish were purchased at the KIT - European Zebrafish Resource Center. Heterozygous Wfs1a^C799X and Wfs1b^W493X mutant line were maintained in an automated fish tank system (ZebTEC, Tecniplast) at 28°C, pH 7, conductivity around 500 µS and with a 14h:10h light:dark cycle. They were fed with standard diet. Heterozygous Wfs1a^C799X/+ zebrafish were crossed to generate wild-type (Wfs1a^WT) and homozygous mutant Wfs1a^C799X zebrafish (Wfs1a^C799X), which became progenitors in order to generate future generations for the experiments. […]
Visual Motor Response (VMR): The VMR assay quantifies the locomotor activity of zebrafish larvae to light changes using infrared tracking system. […] At 5-dpf, the locomotor behavior of larvae was monitored by using an automated videotracking device (Zebrabox®, ViewPoint) by employing a DinionXF 1/3-inch Monochrome camera (model BFLY-PGE-13H2M, FLIR) fitted with a fixed-angle megapixel lens (SR5014MP-5C, SEIKO Optical). […] The floor of the box emitted by a light-controlling unit a white light (69-83 µW/cm2 measured at 495 λ). The response to stimuli was recorded by an infra-red (IR) camera (25 frames/s) under IR light illumination at 850 nm, which the animals could not perceive. […] The distance covered was measured in mm/s. […]

For assay [5], the system named is Wfs1^ΔExon8 mice. The assay is described as follows: Elevated plus-maze test (anxiety). Format: in vivo. The conditions noted are these: female Wfs1^ΔExon8 mice, 0.3 mg/kg ip 30 min before.
Description: as §1
Elevated plus-maze test: The apparatus consisted of two open arms (24 × 8 cm^2), in white PVC, and two enclosed arms (24 × 8 × 20 cm^3), in dark grey PVC. The arms extended from a central platform (8 × 8 cm), and the maze was elevated to a height of 50 cm above the floor. Each mouse was placed at the centre of the plus-maze and its exploration behaviour was recorded during 10 min. The time spent and numbers of entries into the enclosed or open arms were recorded. Results were expressed as total number of entries into the arms, time spent in the open arms, time spent per visit in the open arms.
as §2

For assay [6], the system named is Wfs1^ΔExon8 mice. The experiment in a line: Place learning in the water-maze (spatial reference memory). Format: in vivo. The method, then: as §1
Place learning in the water-maze: Spatial reference memory was analyzed using a water-maze procedure. A transparent Plexiglas non-slippery platform (Ø 10 cm) was immersed in a circular pool (Ø 140 cm, height 40 cm), under the water surface during acquisition. The water temperature, 23 ± 1°C, light intensity, external cues in the room, and water opacity were rigorously reproduced. Swimming was videotracked (Viewpoint), with trajectories being analyzed as latencies and distances. The software divided the pool into four quadrants. Training consisted in three swims per day for 6 days, with 15 min intertrial-time interval. Start positions, set at each limit between quadrants, were randomly selected and each mouse was allowed a 90 s swim to find the platform, initially placed in the NE quadrant. […] The median latency and swim path length were calculated for each training day. Acquisition slopes were also calculated individually over the acquisition period. Forty-eight hours after the last swim, on day 7, a probe test was performed during which the platform was removed and each animal allowed a free 60 s swim. The time spent in the training (T) quadrant and the average of time spent in the 3 others (o) were determined. On days 8, mice were re-tested in the water-maze for assessing visual ability and non-spatial learning. They were submitted to the acquisition of a visible platform placed in a new location, with training consisting in three swims per day with 15 min intertrial-time interval. Swimming was analyzed as latencies. No exclusion criterion has been set in this test.

`O=C(OCCN1CCOCC1)C1(c2ccccc2)CCCCC1` [PRE-084, 2-(4-morpholinethyl)-1-phenylcyclohexanecarboxylate hydrochloride]: the number of crossing result in the assay with Wfs1^ΔExon8 mice [1] (Fig. 6a) is “slightly reduced”. Also, the “time spent in the light compartment” value with Wfs1^ΔExon8 mice [1] (Fig. 6b) is recorded as “increased up to the levels of Wfs1^WT mice”. Moreover, the “time per visit (light compartment)” value with Wfs1^ΔExon8 mice [1] (Fig. 6c) is listed as “increased up to the levels of Wfs1^WT mice”. In addition, the “object exploration during session 2” value in the assay with Wfs1^ΔExon8 mice [2] (0.3 mg/kg ip 30 min before session with two identical objects, Fig. 3a) is “failed to affect object exploration”. Moreover, the “exploration for the novel object in session 3” value in the assay with Wfs1^ΔExon8 mice [2] (0.3 mg/kg ip, Fig. 3b) is given as “attenuated the deficit of exploration for the novel object”. The escape latency entry in the assay with Wfs1^ΔExon8 mice [3] (Fig. 5b) is recorded as “significantly reduced”. In addition, in the assay with Wfs1^ΔExon8 mice [3] (compared to V-treated Wfs1^WT mice, Fig. 5a), the step-through latency deficit entry is “very significant for V-treated Wfs1^ΔExon8 mice but not for PRE-084-treated Wfs1^ΔExon8 mice”. Further, the spontaneous alternation entry with Wfs1^ΔExon8 mice [4] is reported as “very significant recovery of spontaneous alternation”. For the same molecule, the hyperlocomotor response result is on record as “down to the WT line mobility” in the assay on Wfs1ab^KO larvae (at 3 and 10 µM in the bath); “concentration-dependent decrease of the hyperlocomotor response” with Wfs1ab^KO larvae (between 0.1 and 10 µM in the bath, 4 dpf to 5 dpf). Besides, the “maze exploration (total number of arm entries)” value in the assay on Wfs1^ΔExon8 mice [5] (Fig. 7a) is listed as “no impact was noted”. Moreover, the “time spent in open arms” value in the assay with Wfs1^ΔExon8 mice [5] (Fig. 7b) was “slightly increased”. Further, the “time per visit in open arms” value with Wfs1^ΔExon8 mice [5] (Fig. 7c) is reported as “significantly increased”. Besides, the acquisition slopes entry with Wfs1^ΔExon8 mice [6] (male Wfs1^ΔExon8 mice, compared to V-treated Wfs1^WT mice, Fig. 4c) was “only vehicle (V)-treated Wfs1^ΔExon8 mice showed a statistically significant decrease”. Besides, in the assay on Wfs1^ΔExon8 mice [6] (male Wfs1^ΔExon8 mice, daily injection 0.3 mg/kg ip 30 min before 1st swim of each training trial, Fig. 4b), the “delay in acquisition / swimming latencies” value was “prevented this delay and significantly decreased swimming latencies during the two last trials”. Moreover, in the assay with Wfs1^ΔExon8 mice [6] (male mice, 60-s swim without platform, Fig. 4d), the “probe test, exploration of the T quadrant” value was “no impact of the PRE-084 was noted”.
